These are literature values, as cited in patent publication US20240016170A1, “A ZINC FORTIFIED TEA COMPOSITION” (EKATERRA TEA MANUFACTURING USA LLC, priority 2020, published 2024).

The conditions of the data set: water at 25° C.

For the molecule `[O]=[Zn]` [zinc oxide], the solubility is recorded as 0.0004 g/100 g water.
